Measured values as given in patent US9828622B2, “Photoactivatable antimicrobial agents and therapeutic and diagnostic methods of using same” (The General Hospital Corporation, priority 2008, dated 2017).
Entries after “also recorded” stand apart in the source; their conditions may differ. Read-outs that look alike come from different tables or passages of the source.

Tests used:
[1] = Photosensitizing efficacy
Source text: The terminal carboxyl group with the flexible alkyl chain provides an ideal site for conjugation. 7-amino-3-chloromethyl-3-cephem-4-carboxylic acid p-methoxybenzyl ester (ACLE, commercial available) is used as cephalosporin scaffold. ACLE is a common starting material to synthesize cephalosporin derivatives. It integrates an amino group at 7-position. By replacing chlorine at 3′-position with 4-amino-thiophenol provides an additional amino group therefore each ACLE molecule can accommodate two EtNBS-COOH molecules to form a static quenching pair.

B. cereus = test: Growth inhibition / MIC assay; assay type: cell-based, Bacillus cereus
Experimental: (§1) (a.) inhibition constants of a panel of β-lactams for the competitive substrate inhibition of β-LEAP hydrolysis by B. cereus β-lactamase, (b.) inhibition constants for β-LEAP hydrolysis by bacterial suspensions, (c.) inhibition profiles of panel of β-lactams for B. cereus, (d.) MICs of panel of β-lactams for B. cereus. […] Statistical significance was determined via Tukey multiple comparison test using Graphpad Prism 5. Horizontal bars connected by solid intersections indicate significant difference.
(§2) This approach involved combining in a 384 multi-well assay plate format purified B. cereus beta-lactamase or bacterial suspensions with the β-LEAP of the invention and a competitive beta-lactam substrate, including amoxicillin, clavulanic acid, ampicillin, penicillin G, carbenicillin, cefazolin, cefatoxime or ceftazidime.

[2] = biological target: purified B. cereus beta-lactamase; test: Competitive substrate inhibition of β-LEAP hydrolysis, purified enzyme; assay type: biochemical, Bacillus cereus; details: competitive beta-lactam substrate; 384 multi-well plate
Experimental: as §1
(§3) This Example describes a new methodology for use in characterizing beta-lactamases by using a competitive substrate inhibition assay. It is believed that no competitive substrate inhibition assays for determining beta-lactamase functionality are currently in use by clinical microbiology laboratories. This new approach is based on exploiting the sensitivity and mechanism of the β-LEAP compound of the invention. More in particular, this approach is based on measuring the level of induced-fluorescence caused by the cleavage/hydrolysis and consequent activation of the β-LEAP compound by beta-lactamase enzymes under evaluation while also in the presence of, or “in competition” with, different types and amounts of beta-lactamase enzyme substrates. The degree of inhibition of β-LEAP hydrolysis/fluorescence due to competition with the beta-lactam competitor substrates is determined, which provides the basis for determining beta-lactamase functionality.
as §2

[3] = biological target: Bacillus cereus 5/β bacterial suspensions; test: Competitive substrate inhibition of β-LEAP hydrolysis, bacterial suspensions; assay type: cell-based; details: competitive beta-lactam substrate; whole bacteria suspensions
Experimental: as §1, §3, §2

Molecule | in vitro growth inhibition (MIC assay) (B. cereus) | inhibition of β-LEAP hydrolysis/fluorescence (inhibition constants, Ki, FIG. 13a) [2] | inhibition of β-LEAP hydrolysis/fluorescence (inhibition constants, Ki, FIG. 13b) [3] | further results
CCN(CC)c1ccc2nc3c(cc(NCCCCC(=O)O)c4ccccc43)[s+]c2c1 [EtNBS-COOH, 5-(4′-carboxybutylamino)-9-diethylaminobenzo[a]phenothiazine] |  |  |  | photosensitizing efficacy [1]: excellent photosensitizing efficacy
CC1(C)S[C@@H]2[C@H](NC(=O)[C@H](N)c3ccc(O)cc3)C(=O)N2[C@H]1C(=O)O [amoxicillin] | no inhibition | detected |  | in vitro growth inhibition (MIC assay) (B. cereus; listed as Amoxicillin): did not inhibit the growth
CC1(C)S[C@@H]2[C@H](NC(=O)[C@H](N)c3ccccc3)C(=O)N2[C@H]1C(=O)O [ampicillin] | did not inhibit the growth | detected |  | in vitro growth inhibition (MIC assay) (B. cereus; listed as ampillin): no inhibition
CO/N=C(\C(=O)N[C@@H]1C(=O)N2C(C(=O)O)=C(COC(C)=O)CS[C@H]12)c1csc(N)n1 [cefatoxime] |  | more effective inhibitors | more effective inhibitors | 
CC(C)(O/N=C(\C(=O)N[C@@H]1C(=O)N2C(C(=O)[O-])=C(C[n+]3ccccc3)CS[C@H]12)c1csc(N)n1)C(=O)O [ceftazidime] |  | more effective inhibitors | more effective inhibitors | 
O=C(O)[C@H]1/C(=C/CO)O[C@@H]2CC(=O)N21 [clavulanic acid] | no inhibition; also recorded: did not inhibit the growth |  |  | 
cephalothin |  | more effective inhibitors | more effective inhibitors | 
